Laboratory results taken from paper PMC9739180, “Discovery of a Flavonoid FM04 as a Potent Inhibitor to Reverse P-Glycoprotein-Mediated Drug Resistance in Xenografts and Improve Oral Bioavailability of Paclitaxel” (International Journal of Molecular Sciences, 2022).
Where two headings read alike, the source gives them in different places.

What was measured:
MRP1 = target: T1, MRP1 (Homo sapiens, UniProt P33527); assay: MRP1-modulating activity in 2008/MRP1 cells (MTS); assay type: cell-based
T1 construct: expressed in transfected cells; host or cells: 2008/MRP1 (human ovarian cancer)
T1 sequence (P33527 whole entry): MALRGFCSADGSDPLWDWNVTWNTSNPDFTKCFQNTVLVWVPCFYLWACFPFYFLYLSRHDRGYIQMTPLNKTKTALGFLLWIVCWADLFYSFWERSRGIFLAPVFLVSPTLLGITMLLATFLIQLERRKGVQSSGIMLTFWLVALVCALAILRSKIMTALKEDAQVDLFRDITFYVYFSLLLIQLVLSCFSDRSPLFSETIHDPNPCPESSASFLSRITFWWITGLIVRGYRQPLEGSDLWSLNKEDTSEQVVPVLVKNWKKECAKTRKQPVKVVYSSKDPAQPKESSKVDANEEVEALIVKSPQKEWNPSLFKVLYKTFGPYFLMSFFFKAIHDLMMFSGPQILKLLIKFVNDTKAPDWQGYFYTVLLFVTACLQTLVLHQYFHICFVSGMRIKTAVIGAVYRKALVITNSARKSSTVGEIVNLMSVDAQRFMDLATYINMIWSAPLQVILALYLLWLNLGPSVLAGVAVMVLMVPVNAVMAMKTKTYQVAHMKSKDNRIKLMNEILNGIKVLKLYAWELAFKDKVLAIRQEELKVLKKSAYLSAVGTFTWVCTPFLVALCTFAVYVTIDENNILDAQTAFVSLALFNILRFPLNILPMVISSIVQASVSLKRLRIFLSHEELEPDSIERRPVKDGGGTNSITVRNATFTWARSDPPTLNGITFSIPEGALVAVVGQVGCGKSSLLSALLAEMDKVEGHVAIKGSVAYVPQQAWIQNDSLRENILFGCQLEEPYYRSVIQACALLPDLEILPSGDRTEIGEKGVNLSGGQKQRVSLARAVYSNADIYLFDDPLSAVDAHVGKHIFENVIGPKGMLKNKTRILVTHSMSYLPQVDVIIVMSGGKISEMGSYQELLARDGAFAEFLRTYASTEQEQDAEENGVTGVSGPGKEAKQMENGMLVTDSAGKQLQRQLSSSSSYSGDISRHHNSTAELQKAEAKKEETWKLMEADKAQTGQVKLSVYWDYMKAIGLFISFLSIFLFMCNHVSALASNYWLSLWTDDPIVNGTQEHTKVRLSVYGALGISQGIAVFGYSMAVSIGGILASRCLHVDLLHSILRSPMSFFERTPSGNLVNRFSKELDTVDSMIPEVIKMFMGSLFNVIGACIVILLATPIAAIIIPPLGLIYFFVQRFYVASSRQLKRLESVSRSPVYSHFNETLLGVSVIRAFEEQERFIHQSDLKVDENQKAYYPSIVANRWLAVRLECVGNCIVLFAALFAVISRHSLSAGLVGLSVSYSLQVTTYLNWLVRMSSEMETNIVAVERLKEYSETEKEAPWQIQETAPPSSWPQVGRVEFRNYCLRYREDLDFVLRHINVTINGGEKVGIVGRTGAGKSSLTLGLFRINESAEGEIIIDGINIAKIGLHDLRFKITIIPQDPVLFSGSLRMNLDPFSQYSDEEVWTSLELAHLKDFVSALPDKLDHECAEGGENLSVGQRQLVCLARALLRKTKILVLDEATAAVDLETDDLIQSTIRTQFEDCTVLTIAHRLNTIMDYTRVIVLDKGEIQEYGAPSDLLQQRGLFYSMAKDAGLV
Experimental: The final volume in each well of the 96-well plate was 200 μL. The plate was then incubated for 5 days at 37 °C. The cell viability was determined using an MTS assay as reported previously.

[1] = Cytotoxicity assay (MTS, 3 days), LCC6; assay type: cell-based; settings: human, LCC6 cells
Experimental: (§1) To each well of 96-well plate, 10,000 cells of LCC6, LCC6MDR or L929 were incubated with different concentrations of FM04 (0, 0.4, 1.2, 3.7, 11, 33 and 100 μM). The final volume in each well of 96-well plate was 100 μL and the plate was incubated for 3 days at 37 °C. The cell viability was determined using MTS assay as reported previously.

[2] = Cytotoxicity assay (MTS, 3 days), LCC6MDR; assay type: cell-based, human; settings: human, LCC6MDR cells
Experimental: as §1

LCC6MDR = assay: Cytotoxicity assay (MTS, 3 days), LCC6MDR; assay type: cell-based, human; settings: at 61 nM to 153 nM
Experimental: as §1

CYP3A4 = target: T2, CYP3A4 (Homo sapiens, UniProt P08684); assay: PTX metabolism in human liver microsomes: p3-OHP formation; assay type: in vitro ADME; settings: HLM
T2 construct: tissue Research Institute for Liver Diseases (Shanghai); host or cells: 50-donor pooled human liver microsomes
T2 sequence (P08684 whole entry): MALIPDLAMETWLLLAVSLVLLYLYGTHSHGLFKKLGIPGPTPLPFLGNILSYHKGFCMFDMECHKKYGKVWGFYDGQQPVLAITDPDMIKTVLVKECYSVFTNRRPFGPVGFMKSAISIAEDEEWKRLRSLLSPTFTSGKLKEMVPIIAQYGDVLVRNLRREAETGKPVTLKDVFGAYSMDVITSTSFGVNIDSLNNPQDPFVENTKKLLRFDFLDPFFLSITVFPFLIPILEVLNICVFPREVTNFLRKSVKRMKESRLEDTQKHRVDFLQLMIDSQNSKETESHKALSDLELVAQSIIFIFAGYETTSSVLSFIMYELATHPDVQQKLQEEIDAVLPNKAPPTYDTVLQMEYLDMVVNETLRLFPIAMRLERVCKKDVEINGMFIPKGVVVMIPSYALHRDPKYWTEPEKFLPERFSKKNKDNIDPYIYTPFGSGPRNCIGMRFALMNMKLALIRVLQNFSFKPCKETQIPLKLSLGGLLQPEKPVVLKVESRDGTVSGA
Experimental: N = 2–3 independent experiments. […] N = 2–3 independent experiments.
Source parameters were as follows, gas temp (350 °C), gas flow (8 L/min), nebulizer (35 psi) and capillary (4000 V). […] Milli-Q with 0.1% formic acid was used as the aqueous phase.

P-gp [3] = target: T3, P-gp (Homo sapiens, UniProt P08183); assay: P-gp-ATPase activity (P-gp-Glo assay); assay type: biochemical; set-up: purchased Promega
T3 sequence (P08183 whole entry): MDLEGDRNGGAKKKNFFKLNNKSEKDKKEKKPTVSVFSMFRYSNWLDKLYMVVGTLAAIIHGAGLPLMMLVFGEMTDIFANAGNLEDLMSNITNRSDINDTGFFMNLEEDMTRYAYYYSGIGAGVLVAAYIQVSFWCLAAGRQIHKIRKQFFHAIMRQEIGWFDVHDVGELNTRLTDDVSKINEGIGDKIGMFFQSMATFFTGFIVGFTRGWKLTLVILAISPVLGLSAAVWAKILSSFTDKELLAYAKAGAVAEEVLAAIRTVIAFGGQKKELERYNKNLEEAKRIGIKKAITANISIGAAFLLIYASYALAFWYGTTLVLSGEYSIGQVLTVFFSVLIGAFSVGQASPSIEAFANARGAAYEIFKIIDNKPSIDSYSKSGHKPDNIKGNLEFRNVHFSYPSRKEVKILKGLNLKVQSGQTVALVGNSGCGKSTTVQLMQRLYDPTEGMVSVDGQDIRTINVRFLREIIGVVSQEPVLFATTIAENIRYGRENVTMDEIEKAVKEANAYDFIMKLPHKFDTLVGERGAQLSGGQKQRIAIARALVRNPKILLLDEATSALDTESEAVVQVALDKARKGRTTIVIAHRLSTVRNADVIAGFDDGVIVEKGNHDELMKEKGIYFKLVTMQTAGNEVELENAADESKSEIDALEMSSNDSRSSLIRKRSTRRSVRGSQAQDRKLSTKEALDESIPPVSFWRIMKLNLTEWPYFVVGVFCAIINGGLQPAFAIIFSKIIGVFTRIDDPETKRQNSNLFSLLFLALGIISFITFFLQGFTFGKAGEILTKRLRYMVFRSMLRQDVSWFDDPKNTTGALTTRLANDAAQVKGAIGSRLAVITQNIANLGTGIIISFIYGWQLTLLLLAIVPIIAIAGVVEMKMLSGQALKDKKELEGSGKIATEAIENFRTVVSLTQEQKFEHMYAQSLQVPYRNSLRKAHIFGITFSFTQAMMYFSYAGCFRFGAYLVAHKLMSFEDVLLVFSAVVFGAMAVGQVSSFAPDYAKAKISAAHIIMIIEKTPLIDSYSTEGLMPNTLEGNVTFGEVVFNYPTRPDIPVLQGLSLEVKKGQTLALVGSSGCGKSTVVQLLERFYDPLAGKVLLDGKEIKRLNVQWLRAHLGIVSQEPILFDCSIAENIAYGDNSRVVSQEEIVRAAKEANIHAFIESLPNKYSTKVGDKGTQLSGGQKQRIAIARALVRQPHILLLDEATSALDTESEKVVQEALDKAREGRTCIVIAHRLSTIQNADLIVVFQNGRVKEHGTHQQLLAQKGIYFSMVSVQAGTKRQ
Experimental: N = 2–3 independent experiments. […] After incubation, the cells were lysed and spun down. […] N = 2–6 independent experiments. […] A 1% DMSO was a solvent control. […] N = 2–3 independent experiments.
P-gp-ATPase activity was measured by a P-gp-Glo assay system (Promega) with a human P-gp membrane, as reported previously. […] The reaction was initiated by the addition of MgATP and incubated at 37 °C for 1 h. After adding the ATP detection reagent, the sample was incubated at room temperature for 20 min before measuring the remaining ATP signal of luminescence by a Clariostar microplate reader (BMG Labtech). Vanadate-inhibitable P-gp ATPase activity was determined by calculating the luminescence signal in the samples with or without sodium vanadate.

P-gp [4] = target: T3, P-gp; assay: Intracellular DOX accumulation assay in LCC6MDR cells
[5] = system: human melanoma MDA435/LCC6MDR xenograft; assay: In vivo efficacy in human melanoma MDA435/LCC6MDR xenograft; set-up: species or system Balb/c nude mice
Experimental: The treatment was given every other day for 12 times (q2d × 12) from day 0 to day 22. There were four treatment groups including (1) control: no treatment, (2) PTX alone (12 mg/kg, I.V.), (3) PTX alone (24 mg/kg, I.V.) and (4) combination treatment: FM04 (28 mg/kg, I.P.,−1 h) + PTX (12 mg/kg, I.V.).
Balb/c nude mice were subcutaneously xenografted with LCC6MDR. The treatment groups included (1) control—no treatment, (2) PTX (12 mg/kg, I.V.) alone, (3) PTX (24 mg/kg, I.V.) alone and (4) co-treatment: FM04 (28 mg/kg, I.P.) was injected 1 hr prior to PTX (12 mg/kg, I.V.). (A) tumor volume and (B) body weight were monitored throughout the treatment. The treatment was given to mice every other day for 12 times (q2d × 12) and indicated as an arrow. […] (C) Tumor-inhibition % on day 34 and tumor-doubling time after each treatment were determined. Number of animal deaths was monitored during the treatment. For the tumor volume at each time point, statistical analysis was conducted by one-way-ANOVA between co-treatment group and PTX alone treatment, * p < 0.05. /: not applicable.
The LCC6MDR tumor xenograft model was studied previously in [24]. Female Balb/c nude mice (4–6 week-old) were subcutaneously inoculated with 5 × 10^7cells of P-gp overexpressing LCC6MDR and allowed to develop tumor. Treatment began when a solid tumor of 150–200 mm^3 was formed. Tumor-bearing mice were randomized into four groups with 7–8 mice in each group: (1) control group—no treatment, (2) PTX alone (12 mg/kg, I.V.), (3) PTX alone (24 mg/kg, I.V.) and (4) co-treatment: FM04 (28 mg/kg, I.P.) was injected 1 hr before PTX (12 mg/kg, I.V.) administration. Tumor growth was measured by an electronic caliper on the injection day and the tumor volume was calculated using the following formula: Estimated tumor volume (mm^3)=l×w^2/2

[6] = system: human melanoma MDA435/LCC6 xenograft; assay: In vivo efficacy of oral co-administration in human melanoma MDA435/LCC6 xenograft; settings: PTX 12 mg/kg I.V., (q1d × 4) × 2 rounds
[7] = set-up: method as in PMID 23090875; settings: oral PTX 10 mg/kg, cited from earlier work

reversal of MRP1-mediated DOX resistance (MRP1; 1 μM, 2008/MRP1)	RF, DOX in 2008/MRP1 (MRP1; IC50 without modulator / IC50 with 1 µM modulator)	reduction in p3-OHP (CYP3A4; FM04 10 μM)	reduction in p3-OHP (CYP3A4; FM04 20 μM)	P-gp ATPase activity, fold of basal (P-gp [3]; 3 μM)	P-gp ATPase activity, fold of basal (P-gp [3]; 100 μM)	EC50 (P-gp [4])	Structure (SMILES)	IC50 at 3 days [1]	IC50 at 3 days [2]	cytotoxicity of FM04 alone towards LCC6MDR cells (LCC6MDR)	Tumor doubling time (Td) ([5]; PTX 12 mg/kg I.V., q2d × 12)	fold reduction in tumor volume ([5]; PTX 24 mg/kg I.V.)	weight loss ([5]; PTX 24 mg/kg I.V.)	No. of animal death ([5]; PTX 24 mg/kg I.V., q2d × 12)	Tumor inhibition on day 31 (%) [6]	fold increase of oral plasma AUC of PTX relative to wild type mice ([7]; Cyp3a KO (Cyp3a−/−) mice)	fold increase of oral plasma AUC of PTX relative to wild type mice ([7]; P-gp KO (Mdr1a/b−/−) mice)	fold increase of oral plasma AUC of PTX relative to wild type mice ([7]; combined P-gp and Cyp3a KO mice)
did not reverse	1.2	42%	51%	1.5 fold	3.3 fold	0.064 µM	O=c1cc(-c2ccc(OCCOCCNCc3ccccc3)cc2)oc2ccccc12 [FM04, 2-(4-(2-(2-(benzylamino)ethoxy)ethoxy)phenyl)-4H-chromen-4-one]	10.3 ± 0.2 µM	5.7 ± 1.5 µM	did not exhibit cytotoxicity								
							CC(=O)O[C@H]1C(=O)[C@@]2(C)[C@H]([C@H](OC(=O)c3ccccc3)[C@]3(O)C[C@H](OC(=O)[C@H](O)[C@@H](NC(=O)c4ccccc4)c4ccccc4)C(C)=C1C3(C)C)[C@]1(OC(C)=O)CO[C@@H]1C[C@@H]2O [PTX, paclitaxel]				10 days	2.5 fold	> 15%	4 out of 6	97%	1.5 fold	12.4 fold	27.6 fold
